The values that follow come from patent US20050214285A1, “Epitopes or mimotopes derived from the C-epsilon-3 or C-epsilon-4 domains of IgE, antagonists thereof, and their therapeutic uses” (SmithKline Beecham Biologicals, s.a. and Peptide …, priority 1999, published 2005).

Positions of bridges follow the written chain, without caps; N, C: chain ends. Residues, ends and D or L forms follow the SMILES beside them. No end group written: not given here.

Assay [1] concerns the target PTmAb0005. Put plainly: BIAcore affinity to PTmAb0005. Format: binding. The following applies: read-out: PTmAb BIAcore KD^Rel (μM) PTmAb0005. An excerpt:
(§1) This involved a DNA sub-cloning transfer from the major coat protein (gVIIIp) filamentous phage display vector to a lower copy number minor phage coat protein (gIIIp) display vector with a random PCR step. […] Included in the tables are ranking orders and also BIAcore affinities where available.
(§2) Thus indicating the importance of correct presentation of the peptides of the present invention to adopt a shape which closely resembles the native target in the context of the whole IgE molecule. [drawing]
(In general: SPR reads the build-up and loss of mass on a sensor chip optically.)

The test system of assay [2] is PTmAb0011. Nature of the assay: Phage display ranking of peptide ligands for PTmAb0011. Type of assay: binding, mouse. To be noted: primary phage display biopannings (Table 7).
From the text: Phage display libraries were used to map the binding sites of the monoclonal antibodies using three different phage libraries, displaying either the XCX15, XCX10 or XAX10 peptide sequence (where X is any amino acid) at the N-terminus of the phage gVIIIp. Tables 6 and 7 show the results of selecting for peptide ligands with the anti human IgE monoclonal antibodies […]. […]
as §1

For assay [3], the target named is PTmAb0011. Put plainly: BIAcore affinity to PTmAb0011. To be noted: read-out: PTmAb BIAcore KD^Rel (μM) PTmAb0011. Type of assay: binding, mouse.
From the text: as §1, §2

For orientation: Kd means the concentration at which binding is half-saturated. Regarding `CC(C)C[C@@H]1NC(=O)[C@H](CC(=O)O)NC(=O)CNC(=O)[C@H](CCC(=O)O)NC(=O)[C@H](CCCNC(=N)N)NC(=O)[C@@H]2CCCN2C(=O)[C@H](Cc2ccccc2)NC(=O)[C@H](C)NC(=O)[C@@H]2CCCN2C(=O)[C@@H](NC(=O)[C@@H](N)CO)CSSC[C@@H](C(=O)N[C@@H](C)C(=O)N2CCC[C@H]2C(=O)N2CCC[C@H]2C(=O)N[C@H](C(=O)N[C@H](C(=O)O)C(C)C)[C@@H](C)O)NC1=O` [EEC131] (H-SCPAFPREGDLCAPPTV-OH; disulfide 2-12), the Kd in assay [1] was more than 1000 µM; in assay [3] it was 42 µM. The “Rank (ECL) PTmAb0011” value in assay [2] stood at 910.

DCDWINPPDPPHFWKDT [EEC2/23/44/132]: the equilibrium dissociation constant (Kd) in assay [1] is more than 600 µM; in assay [3], 7 µM. Moreover, the “Rank (ECL) PTmAb0011” value in assay [2] worked out at 33.

In the case of `CC[C@H](C)[C@@H]1NC(=O)[C@H](CCSC)NC(=O)[C@H](CCC(=O)O)NC(=O)[C@H](CO)NC(=O)CNC(=O)CNC(=O)[C@H](CC(C)C)NC(=O)[C@H](Cc2c[nH]c3ccccc23)NC(=O)[C@H](C(C)C)NC(=O)[C@H](CCC(=O)O)NC(=O)[C@H](CCCNC(=N)N)NC(=O)[C@@H](NC(=O)[C@@H](N)CO)CSSC[C@@H](C(=O)N[C@@H](CCC(=O)O)C(=O)O)NC(=O)[C@H](CC(=O)O)NC(=O)[C@H](CCSC)NC1=O` [EEC39/50/129] (H-SCREVWLGGSEMIMDCE-OH; disulfide 2-16), the Kd in assay [1] was more than 1000 µM; in assay [3], 2.4 µM. Further, the “Rank (ECL) PTmAb0011” value in assay [2] is 1611.

Take DALDERAWRARA [EEB33]: the Kd is more than 600 µM in assay [1] and 117 µM in assay [3]. For the same molecule, the “Rank (ECL) PTmAb0011” value in assay [2] is recorded as 15.

Consider `CC[C@H](C)[C@H](NC(=O)[C@@H]1CSSC[C@H](NC(=O)[C@@H](N)CCCNC(=N)N)C(=O)N[C@@H](CCC(=O)O)C(=O)N[C@@H](CCC(=O)O)C(=O)N[C@@H](Cc2c[nH]c3ccccc23)C(=O)N[C@@H](CC(C)C)C(=O)N1)C(=O)N1CCC[C@H]1C(=O)N1CCC[C@H]1C(=O)N[C@@H](C)C(=O)N1CCC[C@H]1C(=O)N[C@@H](C)C(=O)N[C@@H](Cc1ccccc1)C(=O)N[C@@H](C)C(=O)N1CCC[C@H]1C(=O)N1CCC[C@H]1C(=O)O` [EEC21/19] (H-RCEEWLCIPPAPAFAPP-OH; disulfide 2-7), for which the Kd in assay [1] amounted to 14.9 µM; in assay [3], 27.8 µM. Also, the “Rank (ECL) PTmAb0011” value in assay [2] was 3.
